ChEMBL document CHEMBL1148797, “Structure-activity relationships in the binding of chemically derivatized CD4 to gp120 from human immunodeficiency virus” (J Med Chem, 2007)

Experiment: Inhibition of wild type HIV YU2 gp120 to CD4 binding
Parameters: species or system Human immunodeficiency virus

O=C(O)c1cc(SSc2ccc([N+](=O)[O-])c(C(=O)O)c2)ccc1[N+](=O)[O-]
IC50: 3.58 µM

CCN1C(=O)C=CC1=O [N-ETHYLMALEIMIDE]
IC50: 3.22 µM
